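The compound was tested at five concentrations on cells cultured in 96-well plates, with a 48-hour exposure period. Here, GI50 denotes the concentration required for 50% inhibition of growth. The concentration for full growth arrest is given as TGI.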
Tests used:
Test in all cases: NCI tumour cell line growth inhibition, 48 h
786-0 renal = system: 786-0 renal
M14 melanoma = system: M14 melanoma
HOP-62 NSCLC = system: HOP-62 NSCLC
NCI-H23 lung = system: NCI-H23 lung
NCI-H460 lung = system: NCI-H460 lung
IGROV1 ovarian = system: IGROV1 ovarian
PC-3 prostate = system: PC-3 prostate
NCI-H522 lung = system: NCI-H522 lung
HL-60(TB) leukemia = system: HL-60(TB) leukemia
SF-539 CNS = system: SF-539 CNS
SNB-75 CNS = system: SNB-75 CNS
SR leukemia = system: SR leukemia
A549 NSCLC = system: A549 NSCLC
RPMI-8226 leukemia = system: RPMI-8226 leukemia
MCF7 breast = system: MCF7 breast
RXF 393 renal = system: RXF 393 renal
OVCAR-4 ovarian = system: OVCAR-4 ovarian
HCT-15 colon = system: HCT-15 colon
ACHN renal = system: ACHN renal
OVCAR-8 ovarian = system: OVCAR-8 ovarian
KM12 colon = system: KM12 colon
MDA-MB-468 breast = system: MDA-MB-468 breast
A498 renal = system: A498 renal
HS 578T breast = system: HS 578T breast
NCI/ADR-RES ovarian = system: NCI/ADR-RES ovarian
HT29 colon = system: HT29 colon
UACC-257 melanoma = system: UACC-257 melanoma
SF-268 CNS = system: SF-268 CNS
SF-295 CNS = system: SF-295 CNS
LOX IMVI melanoma = system: LOX IMVI melanoma

## S=C(NCCc1ccccc1)Nc1ccc(OCc2nc3ccc(Cl)cc3[nH]2)cc1
786-0 renal
  TGI: 21.4 µM
M14 melanoma
  GI50: 9.53 µM
  TGI: 22 µM
HOP-62 NSCLC
  GI50: 14 µM
  TGI: 28.7 µM
NCI-H23 lung
  GI50: 10.9 µM
  TGI: 23.7 µM
NCI-H460 lung
  GI50: 4.31 µM
  TGI: 17.3 µM
IGROV1 ovarian
  GI50: 6.26 µM
  TGI: 19.9 µM
PC-3 prostate
  GI50: 6.8 µM
  TGI: 22.9 µM
NCI-H522 lung
  GI50: 2.22 µM
  TGI: 7.02 µM
HL-60(TB) leukemia
  GI50: 1.26 µM
  TGI: 4.35 µM
SF-539 CNS
  GI50: 8.77 µM
  TGI: 20.9 µM
SNB-75 CNS
  GI50: 1.63 µM
  TGI: 14.9 µM
SR leukemia
  GI50: 2.2 µM
  TGI: 6.99 µM
A549 NSCLC
  GI50: 12.6 µM
  TGI: 31.5 µM
RPMI-8226 leukemia
  GI50: 4.54 µM
  TGI: 45.5 µM
MCF7 breast
  GI50: 3.14 µM
  TGI: 15.5 µM
RXF 393 renal
  GI50: 4.07 µM
  TGI: 17.1 µM
OVCAR-4 ovarian
  GI50: 7 µM
  TGI: 23.9 µM
HCT-15 colon
  GI50: 4.9 µM
  TGI: 18 µM
ACHN renal
  GI50: 7.74 µM
  TGI: 20.4 µM
OVCAR-8 ovarian
  GI50: 11.9 µM
  TGI: 30.4 µM
KM12 colon
  GI50: 10.5 µM
  TGI: 23.6 µM
MDA-MB-468 breast
  GI50: 3.78 µM
  TGI: 17.4 µM
A498 renal
  GI50: 10.4 µM
  TGI: 22.7 µM
HS 578T breast
  GI50: 8.41 µM
  TGI: 31.9 µM
NCI/ADR-RES ovarian
  GI50: 7.15 µM
  TGI: 25.5 µM
HT29 colon
  GI50: 9.67 µM
  TGI: 24.4 µM
UACC-257 melanoma
  GI50: 13.7 µM
  TGI: 27.4 µM
SF-268 CNS
  GI50: 11.1 µM
  TGI: 27.1 µM
SF-295 CNS
  GI50: 7.08 µM
  TGI: 21.7 µM
LOX IMVI melanoma
  GI50: 4.02 µM
  TGI: 16.1 µM
